The values below come from ChEMBL document CHEMBL1201862, “PubChem BioAssay data set” (2004).

Holding throughout (experiment): NCI tumour cell line growth inhibition, 48 h
Experiment [1] has as its system SNB-19.
Experiment [2] relates to MDA-MB-231.
Experiment [3] concerns K562.
In experiment [4] the test system is CCRF-CEM.
Experiment [5] concerns NCI-H460.
Experiment [6] relates to SNB-78.
Experiment [7] concerns SNB-75.
The subject of experiment [8] is HCT-15.
Experiment [9] has as its system SK-MEL-5.
The subject of experiment [10] is UACC-62.
The test system of experiment [11] is HT-29.
Experiment [12] concerns Malme-3M.
For experiment [13], the system named is DU-145.
For experiment [14], the system named is OVCAR-5.
The test system of experiment [15] is KM-20L2.
Experiment [16] deals with DMS-273.
Experiment [17] has as its system UACC-257.
Experiment [18] relates to ACHN.
In experiment [19] the test system is HCC 2998.
The subject of experiment [20] is OVCAR-8.

Structures are written as SMILES.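 A five-concentration, 48-hour dose response in 96-well plates underlies each endpoint, interpolated linearly between surrounding concentrations. GI50 is the concentration that inhibits growth by half.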 Calls of active or inactive are those of the source. No stated cut-off is given here; in the data, active = GI50 up to about 1.1 µM and inactive = higher.

Turning to `CCc1ccccc1N1CCN(C(=O)c2cc(OC)c(OC)c(OC)c2)CC1`, the GI50 is 0.067 µM (active) in [1]; 0.057 µM (active) in experiment [2]; 0.0235 µM (active) in experiment [3]; 0.0524 µM (active) in experiment [4]; 0.0307 µM (active) in [5]; 0.262 µM (active) in experiment [6]. The GI50 in experiment [7] was 0.0182 µM (active); in [8], 0.0259 µM; in experiment [9], 0.0154 µM (active); in [10], 0.0156 µM (active); in [11] it was 0.0225 µM (active); in experiment [12], 0.0232 µM (active). Further, the GI50 in [13] was 0.0207 µM (active); in [14], 4.14 µM (inactive); in experiment [15], 0.0813 µM (active); in [16], 0.0277 µM (active); in [17], 0.0247 µM (active); in [18], < 0.0137 µM (active). Also, the GI50 in [19] was 0.0585 µM (active); in experiment [20] it was 0.0914 µM (active).

As to `C=CCNc1nc2c(s1)C(=O)c1ccccc1C2=O`, the GI50 is 14.9 µM (inactive) in experiment [1]; 10 µM (inactive) in experiment [2]; 4.76 µM (inactive) in experiment [3]; 12 µM (inactive) in [5]; 24.4 µM (inactive) in [6]; 18.7 µM (inactive) in [7]. Further, the GI50 in [8] was 8.51 µM; in experiment [9], 1.7 µM (inactive); in experiment [10], 3.9 µM (inactive); in experiment [11] it was 21.8 µM (inactive); in experiment [12] it was 12.5 µM (inactive); in [13], 18.6 µM (inactive). Moreover, the GI50 in experiment [14] is 21.7 µM (inactive); in experiment [15] it was 19.1 µM (inactive); in experiment [16], 9.82 µM (inactive); in [17], 2.7 µM (inactive); in [18] it was 7.62 µM (inactive); in experiment [19] it was 20.7 µM (inactive). Also, the GI50 in [20] is 3.73 µM (inactive).

For the molecule `O=C(CC1(O)C(=O)Nc2c(Cl)ccc(Cl)c21)c1ccc2ccccc2c1` (stereo not given), the GI50 in [1] was 16.1 µM (inactive); in experiment [3] it was 2.35 µM (inactive); in experiment [4] it was 3.62 µM (inactive); in [5], 9.2 µM (inactive); in [6] it was 14.5 µM (inactive); in experiment [7] it was 14.2 µM (inactive). Also, the GI50 in experiment [8] was 6.19 µM; in [9] it was 5.65 µM (inactive); in experiment [10], 3.24 µM (inactive); in [11], 2.43 µM (inactive); in [12], 12.5 µM (inactive); in experiment [14], 17.3 µM (inactive). Further, the GI50 in experiment [15] was 7.08 µM (inactive); in [16] it was 5.58 µM (inactive); in [17], 12.2 µM (inactive); in experiment [18], 12.9 µM (inactive); in experiment [19], 13.1 µM (inactive); in [20] it was 15.5 µM (inactive).

Regarding `O=c1ncccn1[C@@H]1O[C@H](CO)[C@H](O)C1O` (stereo not given in full), the GI50 in experiment [1] is > 100 µM (inactive); in experiment [3] it was 52.4 µM (inactive); in experiment [4], 49 µM (inactive); in experiment [5], 47.9 µM (inactive); in [6] it was > 99.5 µM (inactive); in experiment [7] it was 53.8 µM (inactive). Further, the GI50 was > 93.1 µM in [8]; > 100 µM (inactive) in experiment [9]; > 99.5 µM (inactive) in [10]; > 95.1 µM (inactive) in experiment [11]; > 100 µM (inactive) in experiment [12]; > 100 µM (inactive) in [14]. For the same molecule, the GI50 is > 78 µM (inactive) in experiment [15]; > 77.1 µM (inactive) in experiment [16]; > 100 µM (inactive) in [17]; > 100 µM (inactive) in [18]; 40.9 µM (inactive) in experiment [19]; > 74.5 µM (inactive) in experiment [20].
